system: Phospho-Rb (Ser807/811) in SW1573-CDK6 KO cells; assay: Phospho-Rb expression inhibition in SW1573-CDK6 KO cells quantified by in cell Western; type: cell-based; conditions: Homo sapiens, 24 hours, read-out: SW1573 CDK6 KO pRb IC50
Procedure: Parental SW1573 cells were obtained from the American Type Culture Collection (ATCC). CDK4 or CDK6 gene in […] cells was knocked out using the CRISPR-Cas9 technology. First, gRNA complex of CDK4 or CDK6 was prepared with Alt-R CRISPR-Cas9 tracrRNA and crRNA CDK4 (5′-[…]-3′ (SEQ ID NO: 4)) or CDK6 (5′-[…]-3′ (SEQ ID NO. 5)) (IDT-Integrated DNA Technologies), and then ribonucleoprotein (RNP) complex of CDK4 or CDK6 was prepared with respective gRNA complex and Alt-R S.p. Cas9 Nuclease V3 (IDT-Integrated DNA Technologies). Next, 5×10^4/10 μL SWJ1573 cells were electroporated with the CDK4 or CDK6 RNP complex and Alt-R Cas9 Electroporation Enhancer using Neon Transfection System (Thermo Fisher). Cells were then plated in a 96-well plate to select single clones for validation of CDK4 or CDK6 knockout by western blot analysis.
MCF7 cells were obtained from American Type Culture Collection (ATCC, HTB-22). SW1573-CDK6 KO and SW1573-CDK4 KO cells were generated by the CRISPR-Cas9 technology. All cells were plated in 96-well plates (VWR #10062-900, or Corning #3904) in 90 uL culture medium at a density of 20,000 cells/well in the respective growth medium containing 10% FBS and 1% Penicillin Streptomycin, and then incubated at 37° C. overnight. The following day, the test compound was administered to the cells by using 1000× compound stock solution prepared in DMSO at various concentrations. 1000× compound stock solution was first diluted in culturing medium to 10×, then 10 uL compound medium was added to each well in the cell plates. After administration of the compound, the cells were then incubated at 37° C. for 24 hours. Upon completion, the cells were washed with PBS briefly. 150 uL/well of 4% formaldehyde was added and the plates were incubated at room temperature for 20 mins. The cells were washed with PBS briefly, and permeabilized with 150 uL/well of ice cold 100% methanol for 10 mins. The cells were washed with PBS briefly and blocked with 100 uL/well LI-COR blocking buffer for 1 hr at room temperature with gentle shaking. The cells were incubated overnight at 4° C. with 50 uL primary antibody rabbit anti-Phospho-Rb (Ser807/811) (1: 500, Cell Signaling, #8516) and anti-Rb (1:200, Santa Cruz, sc-73598) diluted in Intercept Blocking Buffer (LI-COR, #927-60001) containing 0.1% Tween 20. The next day, the cells were washed with 200 uL PBS containing 0.1% Tween 20, 5×5 mins at room temperature with gentle shaking, and incubated with 50 uL secondary antibody, IRDye® 800CW Goat anti-Rabbit IgG (1:1000, LI-COR, #926-32211) and IRDye®680RD Goat anti-Mouse IgG (1:1000, LI-COR, #926-68070), in LI-COR blocking buffer with 0.2% Tween 20 for 1 hr at room temperature with gentle shaking. The cells were washed with 200 uL PBS containing 0.1% Tween 20, 5×5 mins at room temperature with gentle shaking. The cells were washed with PBS for 5 mins. 100 uL fresh PBS was added to each well and the plates were imaged on a LI-COR Odyssey CLX plate reader.

Q: How did the IC50 turn out when Cc1c(CN2CC[C@H](F)C2)n(C(C)C)c2cc(-c3nc(N[C@@H]4C[C@H]5CO[C@H](O5)[C@H]4O)ncc3F)ccc2c1=O [Compound 293, 7-(5-fluoro-2-(((1S,3R,4S,5R)-4-hydroxy-6,8-dioxabicyclo[3.2.1]octan-3-yl)amino)pyrimidin-4-yl)-2-(((S)-3-fluoropyrrolidin-1-yl)methyl)-1-isopropyl-3-methylquinolin-4(1H)-one] was run?
A: The IC50 was no more than 40 nM.

Q: With CC(C)n1c([C@@H]2CCOC2)nc2c(F)cc(-c3nc(N[C@@H]4C[C@H]5CO[C@H](O5)[C@H]4O)ncc3F)cc21 [Compound 270, (1S,3R,4S,5R)-3-((5-fluoro-4-(4-fluoro-1-isopropyl-2-((S)-tetrahydrofuran-3-yl)-1H-benzo[d]imidazol-6-yl)pyrimidin-2-yl)amino)-6,8-dioxabicyclo[3.2.1]octan-4-ol] as the compound, how does the IC50 read?
A: The IC50 was 40 to 150 nM.

Q: Cc1c(-c2nc(N[C@@H]3C[C@H]4CO[C@H](O4)[C@H]3O)ncc2F)sc2c(Cl)c(C(C)(C)O)cnc12 [Compound 276, (1S,3R,4S,5R)-3-((4-(7-chloro-6-(2-hydroxypropan-2-yl)-3-methylthieno[3,2-b]pyridin-2-yl)-5-fluoropyrimidin-2-yl)amino)-6,8-dioxabicyclo[3.2.1]octan-4-ol] was tested. Which IC50 did it give?
A: The IC50 was no more than 40 nM.

Q: With CC(C)n1c([C@H]2CCOC2)nc2c(F)cc(-c3nc(N[C@@H]4C[C@H]5CO[C@H](O5)[C@H]4O)ncc3F)cc21 [Compound 269, (1S,3R,4S,5R)-3-((5-fluoro-4-(4-fluoro-1-isopropyl-2-((R)-tetrahydrofuran-3-yl)-1H-benzo[d]imidazol-6-yl)pyrimidin-2-yl)amino)-6,8-dioxabicyclo[3.2.1]octan-4-ol] as the compound, how does the IC50 read?
A: Its IC50 is 150 to 1000 nM.

Q: How did the IC50 turn out when Cc1c(-c2nc(N[C@@H]3C[C@H]4CO[C@H](O4)[C@H]3O)ncc2Cl)sc2c(C(C)C)cnnc12 [Compound 259, (1S,3R,4S,5R)-3-((5-chloro-4-(4-isopropyl-7-methylthieno[3,2-c]pyridazin-6-yl)pyrimidin-2-yl)amino)-6,8-dioxabicyclo[3.2.1]octan-4-ol] was run?
A: The IC50 was no more than 40 nM.

Q: For Cc1nc2c(F)cc(-c3nc(N[C@@H]4C[C@H]5CO[C@H](O5)[C@H]4O)ncc3Cl)cc2n1C(C)C [Compound 25, (1S,3R,4S,5R)-3-((5-chloro-4-(4-fluoro-1-isopropyl-2-methyl-1H-benzo[d]imidazol-6-yl)pyrimidin-2-yl)amino)-6,8-dioxabicyclo[3.2.1]octan-4-ol], which IC50 is on record?
A: The IC50 was no more than 40 nM.

Q: How did the IC50 turn out when COC(=O)N1CC[C@@H](c2nc3c(F)cc(-c4nc(N[C@@H]5C[C@H]6CO[C@H](O6)[C@H]5O)ncc4F)cc3n2C(C)C)C1 [Compound 265, methyl (R)-3-(4-fluoro-6-(5-fluoro-2-(((1S,3R,4S,5R)-4-hydroxy-6,8-dioxabicyclo[3.2.1]octan-3-yl)amino)pyrimidin-4-yl)-1-isopropyl-1H-benzo[d]imidazol-2-yl)pyrrolidine-1-carboxylate] was run?
A: The IC50 was 40 to 150 nM.

Q: Which IC50 does the source give for Cc1c(C)n(C(C)C)c2cc(-c3nc(N[C@@H]4C[C@H]5CO[C@H](O5)[C@H]4O)ncc3Cl)ccc2c1=O [Compound 191, 7-(5-chloro-2-(((1S,3R,4S,5R)-4-hydroxy-6,8-dioxabicyclo[3.2.1]octan-3-yl)amino)pyrimidin-4-yl)-1-isopropyl-2,3-dimethylquinolin-4(1H)-one] here?
A: The IC50 was 150 to 1000 nM.

Q: How did the IC50 turn out when CNCc1c(C)c(=O)c2ccc(-c3nc(N[C@@H]4C[C@H]5CO[C@H](O5)[C@H]4O)ncc3F)cc2n1C(C)C [Compound 194, 7-(5-fluoro-2-(((1S,3R,4S,5R)-4-hydroxy-6,8-dioxabicyclo[3.2.1]octan-3-yl)amino)pyrimidin-4-yl)-1-isopropyl-3-methyl-2-((methylamino)methyl)quinolin-4(1H)-one] was run?
A: Its IC50 is 40 to 150 nM.

Q: With Cc1c(CN2[C@@H](C)COC[C@@H]2C)n(C(C)C)c2cc(-c3nc(N[C@@H]4C[C@H]5CO[C@H](O5)[C@H]4O)ncc3Cl)ccc2c1=O [Compound 206, 7-(5-chloro-2-(((1S,3R,4S,5R)-4-hydroxy-6,8-dioxabicyclo[3.2.1]octan-3-yl)amino)pyrimidin-4-yl)-2-(((3S,5S)-3,5-dimethylmorpholino)methyl)-1-isopropyl-3-methylquinolin-4(1H)-one] as the compound, how does the IC50 read?
A: The IC50 was no more than 40 nM.

Q: How did the IC50 turn out when CC(C)(O)c1cnc2c(F)cc(-c3nc(N[C@@H]4C[C@H]5CO[C@H](O5)[C@H]4O)ncc3Cl)cc2c1Cl [Compound 252, (1S,3R,4S,5R)-3-((5-chloro-4-(4-chloro-8-fluoro-3-(2-hydroxypropan-2-yl)quinolin-6-yl)pyrimidin-2-yl)amino)-6,8-dioxabicyclo[3.2.1]octan-4-ol] was run?
A: Its IC50 is no more than 40 nM.

Q: CC(C)n1c(CN2[C@@H](C)COC[C@@H]2C)cc(=O)c2ccc(-c3nc(N[C@@H]4C[C@H]5CO[C@H](O5)[C@H]4O)ncc3Cl)cc21 [Compound 205, 7-(5-chloro-2-(((1S,3R,4S,5R)-4-hydroxy-6,8-dioxabicyclo[3.2.1]octan-3-yl)amino)pyrimidin-4-yl)-2-(((3S,5S)-3,5-dimethylmorpholino)methyl)-1-isopropylquinolin-4(1H)-one] was tested. Which IC50 did it give?
A: The IC50 was 40 to 150 nM.

Q: For CC(C)(O)c1cnc2c(F)cc(-c3nc(N[C@@H]4C[C@H]5CO[C@H](O5)[C@H]4O)ncc3F)cc2c1Cl [Compound 255, (1S,3R,4S,5R)-3-((4-(4-chloro-8-fluoro-3-(2-hydroxypropan-2-yl)quinolin-6-yl)-5-fluoropyrimidin-2-yl)amino)-6,8-dioxabicyclo[3.2.1]octan-4-ol], which IC50 is on record?
A: Its IC50 is no more than 40 nM.

Q: How did the IC50 turn out when Cc1c(C(C)(C)O)cnc2c(F)cc(-c3nc(N[C@@H]4C[C@H]5CO[C@H](O5)[C@H]4O)ncc3F)cc12 [Compound 256, (1S,3R,4S,5R)-3-((5-fluoro-4-(8-fluoro-3-(2-hydroxypropan-2-yl)-4-methylquinolin-6-yl)pyrimidin-2-yl)amino)-6,8-dioxabicyclo[3.2.1]octan-4-ol] was run?
A: Its IC50 is no more than 40 nM.

Q: For CC(C)n1c(CN2[C@@H](C)COC[C@@H]2C)c(C(F)F)c(=O)c2ccc(-c3nc(N[C@@H]4C[C@H]5CO[C@H](O5)[C@H]4O)ncc3Cl)cc21 [Compound 204, 7-(5-chloro-2-(((1S,3R,4S,5R)-4-hydroxy-6,8-dioxabicyclo[3.2.1]octan-3-yl)amino)pyrimidin-4-yl)-3-(difluoromethyl)-2-(((3S,5S)-3,5-dimethylmorpholino)methyl)-1-isopropylquinolin-4(1H)-one], which IC50 is on record?
A: The IC50 was 40 to 150 nM.

Q: For Cc1c(-c2nc(N[C@@H]3C[C@H]4CO[C@H](O4)[C@H]3O)ncc2Cl)sc2c(C)c(C(C)(C)O)cnc12 [Compound 277, (1S,3R,4S,5R)-3-((5-chloro-4-(6-(2-hydroxypropan-2-yl)-3,7-dimethylthieno[3,2-b]pyridin-2-yl)pyrimidin-2-yl)amino)-6,8-dioxabicyclo[3.2.1]octan-4-ol], which IC50 is on record?
A: Its IC50 is no more than 40 nM.

Q: With Cc1c(-c2nc(N[C@@H]3C[C@H]4CO[C@H](O4)[C@H]3O)ncc2Cl)sc2c(Cl)c(C(C)(C)O)cnc12 [Compound 275, (1S,3R,4S,5R)-3-((5-chloro-4-(7-chloro-6-(2-hydroxypropan-2-yl)-3-methylthieno[3,2-b]pyridin-2-yl)pyrimidin-2-yl)amino)-6,8-dioxabicyclo[3.2.1]octan-4-ol] as the compound, how does the IC50 read?
A: Its IC50 is 40 to 150 nM.

Q: For CC(C)n1c([C@@H]2CC2(F)F)nc2c(F)cc(-c3nc(N[C@@H]4C[C@H]5CO[C@H](O5)[C@H]4O)ncc3Cl)cc21 [Compound 216, (1S,3R,4S,5R)-3-((5-chloro-4-(2-((S)-2,2-difluorocyclopropyl)-4-fluoro-1-isopropyl-1H-benzo[d]imidazol-6-yl)pyrimidin-2-yl)amino)-6,8-dioxabicyclo[3.2.1]octan-4-ol], which IC50 is on record?
A: Its IC50 is no more than 40 nM.

Q: With Cc1c(CN2CCC2)n(C(C)C)c2cc(-c3nc(N[C@@H]4C[C@H]5CO[C@H](O5)[C@H]4O)ncc3F)ccc2c1=O [Compound 196, 2-(azetidin-1-ylmethyl)-7-(5-fluoro-2-(((1S,3R,4S,5R)-4-hydroxy-6,8-dioxabicyclo[3.2.1]octan-3-yl)amino)pyrimidin-4-yl)-1-isopropyl-3-methylquinolin-4(1H)-one] as the compound, how does the IC50 read?
A: The IC50 was 40 to 150 nM.
